# Results: PubChem BioAssay AID1259407 (Chemical Carcinogenesis Research Information System (CCRIS), 2018)
# Calls of active or inactive are those of the source. No rule for the calls is given here.
# System: CCRIS mutagenicity, Ames/micronucleus/aberration tests
# Experiment: CCRIS mutagenicity studies
# [1] = Test System: AMES SALMONELLA TYPHIMURIUM, Strain/Indicator: TA98, Metabolic Activation: NONE, Method: STANDARD PLATE
# [2] = Test System: AMES SALMONELLA TYPHIMURIUM, Strain/Indicator: TA1535, Metabolic Activation: NONE, Method: STANDARD PLATE
# [3] = Test System: AMES SALMONELLA TYPHIMURIUM, Strain/Indicator: TA1538, Metabolic Activation: NONE, Method: STANDARD PLATE
structure (smiles),measurement,setting,value
O=C1NCCN1c1ncc([N+](=O)[O-])s1,mutagenic call,"Test System: AMES SALMONELLA TYPHIMURIUM, Strain/Indicator: TA96(NR), Metabolic Activation: NONE, Method: STANDARD PLATE",inactive; negative
same,mutagenic call,"Test System: AMES SALMONELLA TYPHIMURIUM, Strain/Indicator: TA96(NRB), Metabolic Activation: NONE, Method: PREINCUBATION",active; positive
same,mutagenic call,"Test System: AMES SALMONELLA TYPHIMURIUM, Strain/Indicator: TA96(NRB), Metabolic Activation: RAT, LIVER, S-9, AROCLOR 1254, Method: PREINCUBATION",active; positive
same,mutagenic call,"Test System: AMES SALMONELLA TYPHIMURIUM, Strain/Indicator: TA96(NRC), Metabolic Activation: NONE, Method: PREINCUBATION",inactive; negative
same,mutagenic call,"Test System: AMES SALMONELLA TYPHIMURIUM, Strain/Indicator: TA96(NRC), Metabolic Activation: RAT, LIVER, S-9, AROCLOR 1254, Method: PREINCUBATION",inactive; negative
same,mutagenic call,"Test System: AMES SALMONELLA TYPHIMURIUM, Strain/Indicator: TA96, Metabolic Activation: NONE, Method: PREINCUBATION",active; positive
same,mutagenic call,"Test System: AMES SALMONELLA TYPHIMURIUM, Strain/Indicator: TA96, Metabolic Activation: NONE, Method: STANDARD PLATE",active; positive
same,mutagenic call,"Test System: AMES SALMONELLA TYPHIMURIUM, Strain/Indicator: TA96, Metabolic Activation: RAT, LIVER, S-9, AROCLOR 1254, Method: PREINCUBATION",active; positive
same,mutagenic call,"Test System: AMES SALMONELLA TYPHIMURIUM, Strain/Indicator: TA97, Metabolic Activation: NONE, Method: PREINCUBATION",active; positive
same,mutagenic call,"Test System: AMES SALMONELLA TYPHIMURIUM, Strain/Indicator: TA97, Metabolic Activation: NONE, Method: STANDARD PLATE",active; positive
same,mutagenic call,"Test System: AMES SALMONELLA TYPHIMURIUM, Strain/Indicator: TA97, Metabolic Activation: RAT, LIVER, S-9, AROCLOR 1254, Method: PREINCUBATION",active; positive
same,mutagenic call,"Test System: AMES SALMONELLA TYPHIMURIUM, Strain/Indicator: TA98(NR), Metabolic Activation: NONE, Method: PREINCUBATION",active; positive
same,mutagenic call,"Test System: AMES SALMONELLA TYPHIMURIUM, Strain/Indicator: TA98(NR), Metabolic Activation: NONE, Method: STANDARD PLATE",inactive; negative
same,mutagenic call,"Test System: AMES SALMONELLA TYPHIMURIUM, Strain/Indicator: TA98(NR), Metabolic Activation: RAT, LIVER, S-9, AROCLOR 1254, Method: PREINCUBATION",active; positive
same,mutagenic call,"Test System: AMES SALMONELLA TYPHIMURIUM, Strain/Indicator: TA98, Metabolic Activation: NONE, Method: PREINCUBATION",active; positive
same,mutagenic call,[1],active; positive
same,mutagenic call,"Test System: AMES SALMONELLA TYPHIMURIUM, Strain/Indicator: TA98, Metabolic Activation: RAT, LIVER, S-9, AROCLOR 1254, Method: PREINCUBATION",active; positive
same,mutagenic call,"Test System: AMES SALMONELLA TYPHIMURIUM, Strain/Indicator: TA98, Metabolic Activation: RAT, LIVER, S-9, AROCLOR 1254 OR PHENOBARBITOL, Method: STANDARD PLATE",active; positive
same,mutagenic call,"Test System: AMES SALMONELLA TYPHIMURIUM, Strain/Indicator: TA98, Metabolic Activation: RAT, LIVER, S-9, KC500 OR PHENOBARBITAL, Method: LIQUID SUSPENSION",active; positive
same,mutagenic call,"Test System: AMES SALMONELLA TYPHIMURIUM, Strain/Indicator: TA100(NR), Metabolic Activation: NONE, Method: PREINCUBATION",active; positive
same,mutagenic call,"Test System: AMES SALMONELLA TYPHIMURIUM, Strain/Indicator: TA100(NR), Metabolic Activation: NONE, Method: STANDARD PLATE",inactive; negative
same,mutagenic call,"Test System: AMES SALMONELLA TYPHIMURIUM, Strain/Indicator: TA100(NR), Metabolic Activation: RAT, LIVER, S-9, AROCLOR 1254, Method: PREINCUBATION",active; positive
same,mutagenic call,"Test System: AMES SALMONELLA TYPHIMURIUM, Strain/Indicator: TA100, Metabolic Activation: NONE, Method: PREINCUBATION",active; positive
same,mutagenic call,"Test System: AMES SALMONELLA TYPHIMURIUM, Strain/Indicator: TA100, Metabolic Activation: RAT, LIVER, S-9, AROCLOR 1254, Method: PREINCUBATION",active; positive
same,mutagenic call,"Test System: AMES SALMONELLA TYPHIMURIUM, Strain/Indicator: TA100, Metabolic Activation: RAT, LIVER, S-9, AROCLOR 1254 OR PHENOBARBITOL, Method: STANDARD PLATE",active; positive
same,mutagenic call,"Test System: AMES SALMONELLA TYPHIMURIUM, Strain/Indicator: TA100, Metabolic Activation: RAT, LIVER, S-9, KC500 OR PHENOBARBITAL, Method: LIQUID SUSPENSION",active; positive
same,mutagenic call,"Test System: AMES SALMONELLA TYPHIMURIUM, Strain/Indicator: TA102(NRD), Metabolic Activation: NONE, Method: PREINCUBATION",active; positive
same,mutagenic call,"Test System: AMES SALMONELLA TYPHIMURIUM, Strain/Indicator: TA102(NRD), Metabolic Activation: RAT, LIVER, S-9, AROCLOR 1254, Method: PREINCUBATION",active; positive
same,mutagenic call,"Test System: AMES SALMONELLA TYPHIMURIUM, Strain/Indicator: TA102, Metabolic Activation: NONE, Method: PREINCUBATION",active; positive
same,mutagenic call,"Test System: AMES SALMONELLA TYPHIMURIUM, Strain/Indicator: TA102, Metabolic Activation: NONE, Method: STANDARD PLATE",active; positive
same,mutagenic call,"Test System: AMES SALMONELLA TYPHIMURIUM, Strain/Indicator: TA102, Metabolic Activation: RAT, LIVER, S-9, AROCLOR 1254, Method: PREINCUBATION",active; positive
same,mutagenic call,"Test System: AMES SALMONELLA TYPHIMURIUM, Strain/Indicator: TA104, Metabolic Activation: NONE, Method: STANDARD PLATE",inactive; negative
same,mutagenic call,[2],inactive; negative
same,mutagenic call,"Test System: AMES SALMONELLA TYPHIMURIUM, Strain/Indicator: TA1535, Metabolic Activation: RAT, LIVER, S-9, AROCLOR 1254 OR PHENOBARBITOL, Method: STANDARD PLATE",inactive; negative
same,mutagenic call,"Test System: AMES SALMONELLA TYPHIMURIUM, Strain/Indicator: TA1537, Metabolic Activation: NONE, Method: STANDARD PLATE",inactive; negative
same,mutagenic call,"Test System: AMES SALMONELLA TYPHIMURIUM, Strain/Indicator: TA1537, Metabolic Activation: RAT, LIVER, S-9, AROCLOR 1254 OR PHENOBARBITOL, Method: STANDARD PLATE",inactive; negative
same,mutagenic call,[3],active; positive
same,mutagenic call,"Test System: AMES SALMONELLA TYPHIMURIUM, Strain/Indicator: TA1538, Metabolic Activation: RAT, LIVER, S-9, AROCLOR 1254 OR PHENOBARBITOL, Method: STANDARD PLATE",active; positive
same,mutagenic call,"Test System: E. COLI, Strain/Indicator: WP2, Metabolic Activation: NONE, Method: SPOT",active; positive
same,mutagenic call,"Test System: E. COLI, Strain/Indicator: WP2 UVRA, Metabolic Activation: NONE, Method: SPOT",active; positive
same,mutagenic call,"Test System: E. COLI, Strain/Indicator: WP2 UVRA, Metabolic Activation: NONE, Method: STANDARD PLATE",active; positive
Cn1c2ccccc2c(=O)c2c(O)cc3c(c21)CC(C(C)(O)CCl)O3 (stereo not given),mutagenic call,[1],active; positive
same,mutagenic call,"Test System: AMES SALMONELLA TYPHIMURIUM, Strain/Indicator: TA98, Metabolic Activation: RAT, LIVER, S-9, PHENOBARBITAL, Method: STANDARD PLATE",active; positive
same,mutagenic call,"Test System: AMES SALMONELLA TYPHIMURIUM, Strain/Indicator: TA100, Metabolic Activation: NONE, Method: STANDARD PLATE",active; positive
same,mutagenic call,"Test System: AMES SALMONELLA TYPHIMURIUM, Strain/Indicator: TA100, Metabolic Activation: RAT, LIVER, S-9, PHENOBARBITAL, Method: STANDARD PLATE",active; positive
same,mutagenic call,[2],inactive; negative
same,mutagenic call,"Test System: AMES SALMONELLA TYPHIMURIUM, Strain/Indicator: TA1535, Metabolic Activation: RAT, LIVER, S-9, PHENOBARBITAL, Method: STANDARD PLATE",inactive; negative
same,mutagenic call,[3],active; positive
same,mutagenic call,"Test System: AMES SALMONELLA TYPHIMURIUM, Strain/Indicator: TA1538, Metabolic Activation: RAT, LIVER, S-9, PHENOBARBITAL, Method: STANDARD PLATE",active; positive
same,mutagenic call,"Test System: AMES SALMONELLA TYPHIMURIUM, Strain/Indicator: TA1978, Metabolic Activation: NONE, Method: STANDARD PLATE",active; positive
same,mutagenic call,"Test System: AMES SALMONELLA TYPHIMURIUM, Strain/Indicator: TA1978, Metabolic Activation: RAT, LIVER, S-9, PHENOBARBITAL, Method: STANDARD PLATE",inactive; negative
Cc1cc(O)c2c(c1O)C(=O)c1c(-c3ccc(O)c4c3C(=O)c3c(O)c(C)cc(O)c3C4=O)ccc(O)c1C2=O,mutagenic call,"Test System: UDS RODENT HEPATOCYTES, Strain/Indicator: THY INCORP, Metabolic Activation: NONE, Method: AUTORADIOGRAPHY",inactive; negative
ClC1CO1 (stereo not given),mutagenic call,"Test System: CHINESE HAMSTER V-79, Strain/Indicator: V-79/8-AZAGUANINE, Metabolic Activation: NONE, Method: STANDARD PLATE",active; positive
same,mutagenic call,"Test System: CHINESE HAMSTER V-79, Strain/Indicator: V-79/OUABAIN, Metabolic Activation: NONE, Method: STANDARD PLATE",active; positive
same,mutagenic call,"Test System: HUMAN H2E1 CELLS, Strain/Indicator: HPRT/6-THIOGUANINE, Metabolic Activation: NONE, Method: SUSPENSION/MICROTITER PLATE",active; positive
